# Active and inactive are the calls of the source.
# What was measured:
# [1] = reduction of Shn3 3'UTR-driven luciferase in osteoblasts – cell-based, Clone20 osteoblasts, firefly luciferase, cherry-picked, dose response (AID 624132); type: functional;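 note: firefly luciferase luminescence from reporter carrying the Shn3 3'UTR in osteoblasts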
# [2] = loss of viability in HepG2 cells – cell-based, CellTiter-Glo, cherry-picked, cytotoxicity control for Shn3 inhibitor project, dose response (AID 624134); type: functional
# [3] = non-specific 3'UTR reporter inhibition in Clone20-Shn3RL – cell-based, Renilla luciferase, cherry-picked, counter-screen for Shn3 inhibitor project, dose response (AID 624133); type: functional
# [4] = molecular target: T1, DNA repair protein RAD52 homolog (Homo sapiens, UniProt P43351); type: functional, biochemical
# T1 sequence (P43351 whole entry): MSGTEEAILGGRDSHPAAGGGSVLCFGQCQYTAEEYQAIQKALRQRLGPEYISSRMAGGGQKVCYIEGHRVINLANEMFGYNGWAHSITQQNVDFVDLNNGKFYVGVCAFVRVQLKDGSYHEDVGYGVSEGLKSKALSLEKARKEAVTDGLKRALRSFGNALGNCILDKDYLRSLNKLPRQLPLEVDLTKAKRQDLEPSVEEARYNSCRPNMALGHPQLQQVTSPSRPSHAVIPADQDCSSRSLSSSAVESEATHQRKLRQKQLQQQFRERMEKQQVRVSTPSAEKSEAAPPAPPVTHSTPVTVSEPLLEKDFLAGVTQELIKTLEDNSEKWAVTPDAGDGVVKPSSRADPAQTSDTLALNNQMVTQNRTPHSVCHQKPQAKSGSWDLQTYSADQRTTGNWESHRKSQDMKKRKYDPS
# [5] = system: HEK293; test: cells; settings: Homo sapiens
# [6] = system: HEK293; test: cells; settings: Homo sapiens; remark: listed apart in the source
# [7] = NIH-3T3 fibroblast cytotoxicity, dose response, cytotoxicity control, cell-based, fluorescence, Alamar Blue, secondary assay (AID 2327); type: functional;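 note: NIH-3T3 mouse fibroblasts cultured with fluconazole at 8 µg/mL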
# [8] = fluconazole-exposed Candida albicans growth modulators – fluorescence, retest, confirmation (AID 2467); type: functional, cell-based
# [9] = molecular target: T2, Serine/threonine-protein phosphatase (Candida dubliniensis (strain CD36 / CBS 7987 / NCPF 3949 / NRRLY-17841) (Yeast), UniProt B9W6M3); test: blockers of CaCl2-induced CDRE-lacZ signaling – S. cerevisiae, luminescence, secondary, dose response (AID 2388); type: functional, cell-based;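 note: yeast reporter cells carrying a calcineurin-responsive lacZ construct stimulated with calcium chloride; luminescent beta-galactosidase reporter signal in whole cells rather than isolated phosphatase activity; potency for inhibition where a drop in reporter signal means calcineurin blockade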
# T2 sequence (B9W6M3 whole entry): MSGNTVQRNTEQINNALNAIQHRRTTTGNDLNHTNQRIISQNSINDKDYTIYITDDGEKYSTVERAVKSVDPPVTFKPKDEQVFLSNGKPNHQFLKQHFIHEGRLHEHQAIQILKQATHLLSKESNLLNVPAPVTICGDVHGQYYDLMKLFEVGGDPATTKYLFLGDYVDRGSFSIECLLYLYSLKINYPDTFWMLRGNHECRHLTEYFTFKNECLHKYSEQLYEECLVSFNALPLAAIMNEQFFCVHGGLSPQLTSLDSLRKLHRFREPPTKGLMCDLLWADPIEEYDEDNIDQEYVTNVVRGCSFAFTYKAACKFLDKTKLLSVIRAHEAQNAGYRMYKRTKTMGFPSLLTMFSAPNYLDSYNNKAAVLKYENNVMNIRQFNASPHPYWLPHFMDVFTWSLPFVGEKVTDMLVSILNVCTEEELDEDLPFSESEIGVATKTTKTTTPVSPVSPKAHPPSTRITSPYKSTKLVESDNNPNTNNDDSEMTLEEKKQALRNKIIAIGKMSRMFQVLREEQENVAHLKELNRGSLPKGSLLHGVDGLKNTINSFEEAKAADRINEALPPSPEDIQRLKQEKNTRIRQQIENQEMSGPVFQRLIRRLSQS
# [10] = molecular target: ATP-dependent molecular chaperone HSP82 (Candida albicans (strain WO-1) (Yeast), UniProt C4YTQ8); test: steroid-induced GRE reporter decrease in yeast – S. cerevisiae, luminescence, Hsp90 inhibitor project, dose response (AID 2400); type: functional, cell-based;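 note: beta-galactosidase luminescence from glucocorticoid response element reporter as proxy for Hsp90 function; inhibitor potency where signal loss means Hsp90 inhibition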
# Sequence of ATP-dependent molecular chaperone HSP82 (C4YTQ8 whole entry): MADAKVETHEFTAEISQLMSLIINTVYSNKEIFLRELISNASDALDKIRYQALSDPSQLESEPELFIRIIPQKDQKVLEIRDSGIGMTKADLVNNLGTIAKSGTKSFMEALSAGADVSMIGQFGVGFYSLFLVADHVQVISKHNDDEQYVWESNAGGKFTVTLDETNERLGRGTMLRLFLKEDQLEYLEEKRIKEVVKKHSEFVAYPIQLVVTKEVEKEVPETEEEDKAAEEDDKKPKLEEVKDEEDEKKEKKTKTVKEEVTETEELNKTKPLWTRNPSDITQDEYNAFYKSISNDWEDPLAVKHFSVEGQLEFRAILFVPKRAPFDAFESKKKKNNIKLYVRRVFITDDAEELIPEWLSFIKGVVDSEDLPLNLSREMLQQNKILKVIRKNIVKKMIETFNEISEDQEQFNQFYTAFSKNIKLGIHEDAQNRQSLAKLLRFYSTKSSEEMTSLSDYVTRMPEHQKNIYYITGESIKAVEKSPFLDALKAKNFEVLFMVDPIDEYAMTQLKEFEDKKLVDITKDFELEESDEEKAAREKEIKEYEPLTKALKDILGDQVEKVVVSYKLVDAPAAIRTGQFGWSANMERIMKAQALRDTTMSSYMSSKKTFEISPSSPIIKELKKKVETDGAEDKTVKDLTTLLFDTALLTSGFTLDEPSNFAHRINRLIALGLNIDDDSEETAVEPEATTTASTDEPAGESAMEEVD
# [11] = system: HEK293; test: inhibition of NOD1-driven NF-kB reporter – cell-based, luminescence, uHTS, primary screen (AID 1578); type: functional; settings: Homo sapiens
# [12] = system: HEK293; test: cells; type: functional, cell-based; settings: Homo sapiens
# [13] = system: HEK293; test: cells; type: functional, cell-based; settings: Homo sapiens; remark: listed apart in the source
# [14] = system: HEK293; test: NOD2 signaling inhibitors in MDP-stimulated cells, cell-based, uHTS, luminescence (AID 2001); type: functional; settings: Homo sapiens
# [15] = viability of PTEN-deleted HCT116 cells – cell-based, HCT116 PTEN knockout, dose response (AID 1047); type: functional;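 note: HCT116 colon tumor cells with PTEN knocked out; cells exposed to compound for 60 hours before readout; potency for loss of cell viability measured by luminescence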
# [16] = viability of HCT116 lacking mutant beta-catenin – cell-based, human colon tumor, dose response (AID 1045); type: functional;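 note: HCT116 colon tumor cells with beta catenin knocked out; cells exposed to compound for 60 hours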
# [17] = system: Streptococcus sp. 'group A'; test: Streptococcus pyogenes SK(-)GAS viability under kanamycin – luminescence, BacTiterGlo, confirmation, counter-screen for streptokinase expression inhibitor project, dose response (AID 1900); type: functional, organism-based
# [18] = molecular target: T3, Streptokinase A (Streptococcus pyogenes serotype M1, UniProt P10520); test: viability-normalized secreted streptokinase activity reduction – plasminogen activation absorbance, OD405, dose response (AID 1914); type: functional, Streptococcus pyogenes M1 GAS;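 note: secreted streptokinase activity via plasminogen activation per viability signal from cell pellet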
# T3 sequence (P10520 whole entry): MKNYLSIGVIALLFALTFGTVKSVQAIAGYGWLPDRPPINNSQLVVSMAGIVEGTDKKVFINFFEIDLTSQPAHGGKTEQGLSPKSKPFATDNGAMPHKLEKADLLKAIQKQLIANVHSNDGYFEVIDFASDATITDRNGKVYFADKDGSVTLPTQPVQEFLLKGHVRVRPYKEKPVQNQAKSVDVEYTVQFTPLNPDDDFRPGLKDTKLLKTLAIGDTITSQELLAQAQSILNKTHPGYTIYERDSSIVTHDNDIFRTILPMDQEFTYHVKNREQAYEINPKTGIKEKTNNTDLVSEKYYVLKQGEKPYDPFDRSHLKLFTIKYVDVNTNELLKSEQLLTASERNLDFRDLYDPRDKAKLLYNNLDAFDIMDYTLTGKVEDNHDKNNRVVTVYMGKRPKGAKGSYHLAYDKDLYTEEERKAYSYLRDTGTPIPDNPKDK
# [19] = system: Streptococcus; test: GAS UMAA2166 growth inhibition – luminescence, BacTiterGlo, counter-screen for streptokinase expression inhibitor project, dose response (AID 1915); type: functional, organism-based;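 note: potency for reduction of bacterial viability or growth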
# [20] = system: Escherichia coli; test: microbe, parasite or virus in culture
smiles,measurement,setting,value
CN(C)CCNC(=O)c1cccc2nc3cccc(F)c3nc12,AC50,[1],13.7 µM (active)
same,AC50,[2],4.69 µM (active)
same,AC50,[3],23.8 µM (active)
same,AC50,[4],4.63 µM (active)
same,EC50,[5],> 59.6 µM (inactive)
same,EC50,[6],> 59.6 µM (inactive)
CC(CC(=O)Nc1ncc([N+](=O)[O-])s1)c1ccccc1 (configuration not stated),EC50,[7],> 150 µM (inactive)
same,EC50,[8],0.76 µM (active)
same,EC50,[9],> 180 µM (inactive)
same,EC50,[10],> 160 µM (inactive)
Cc1cc(C)cc(NC(=O)/C=C/c2ccc([N+](=O)[O-])s2)c1,EC50,[11],> 20 µM (inactive)
same,IC50,[12],9.79 µM (active)
same,IC50,[13],> 20 µM (inactive)
same,IC50,[14],> 20 µM (inactive)
same,EC50,[15],3.75 µM (active)
same,EC50,[16],6.03 µM (active)
same,EC50,[5],> 59.7 µM (inactive)
same,EC50,[6],> 59.7 µM (inactive)
Cc1cc(-c2c(C)[nH]n(-c3ccc(Cl)cc3)c2=O)n(-c2ccc(Cl)cc2)n1,EC50,[17],17.8 µM (active)
same,EC50,[18],> 150 µM (not active)
same,EC50,[19],62.8 µM (active)
same,AC50,[20],46.2 µM (active)

# From ChEMBL document CHEMBL1201862, “PubChem BioAssay data set” (2004)
